Experimental data from patent publication US9200001B2, “Triazolyl PDE10 inhibitors” (Merck Sharp & Dohme Corp., priority 2011, dated 2015).

Target: human PDE10A2 (Homo sapiens (Human), UniProt Q9Y233)
Assay: PDE10 fluorescence polarization (IMAP FP) inhibition assay
Type: biochemical
Settings: FAM-labeled cAMP 50 nM, room temperature, read-out: PDE10a Ki
Procedure, shortened: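 Cytoplasmic lysate of AD293 cells transiently expressing human PDE10A2, incubated 30 minutes at room temperature with 50 nM FAM-labeled cAMP in Tris pH 7.2 with MgCl2. Read by IMAP fluorescence polarization; 0% inhibition set by 1% DMSO, 100% by a reference PDE10 inhibitor.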

Chain of human PDE10A2 (Q9Y233 267-1055): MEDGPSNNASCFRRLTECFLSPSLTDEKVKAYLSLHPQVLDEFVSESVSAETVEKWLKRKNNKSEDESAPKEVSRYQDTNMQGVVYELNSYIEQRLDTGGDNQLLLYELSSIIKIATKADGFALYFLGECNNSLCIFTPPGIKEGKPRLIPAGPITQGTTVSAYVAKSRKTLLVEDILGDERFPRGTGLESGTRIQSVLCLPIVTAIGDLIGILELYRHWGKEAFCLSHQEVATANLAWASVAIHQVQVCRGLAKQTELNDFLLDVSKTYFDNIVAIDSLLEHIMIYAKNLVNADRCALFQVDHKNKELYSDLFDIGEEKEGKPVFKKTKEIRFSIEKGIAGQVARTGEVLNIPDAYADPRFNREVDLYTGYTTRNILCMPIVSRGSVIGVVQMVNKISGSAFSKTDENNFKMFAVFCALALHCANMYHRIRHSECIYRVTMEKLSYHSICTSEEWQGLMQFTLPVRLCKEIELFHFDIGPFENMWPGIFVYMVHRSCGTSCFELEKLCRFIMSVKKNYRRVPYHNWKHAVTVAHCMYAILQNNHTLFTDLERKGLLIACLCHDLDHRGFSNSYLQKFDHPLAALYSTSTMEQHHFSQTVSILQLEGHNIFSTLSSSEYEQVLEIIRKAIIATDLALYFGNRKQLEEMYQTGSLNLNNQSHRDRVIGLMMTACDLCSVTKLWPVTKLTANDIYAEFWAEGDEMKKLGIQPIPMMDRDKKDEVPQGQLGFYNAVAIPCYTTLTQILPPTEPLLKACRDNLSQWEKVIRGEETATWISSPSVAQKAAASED

Ki	SMILES
> 75 nM	Cc1nc([C@H]2C[C@@H]2c2nc3ccccc3n2C)cc(-n2nc(C)nc2C2CCN(C(=O)OC(C)(C)C)CC2)n1 (stereo in doubt) [Cpd 84, tert-butyl 4-(3-methyl-1-{2-methyl-6-[2-(1-methyl-1H-benzimidazol-2-yl)cyclopropyl]pyrimidin-4-yl}-1H-1,2,4-triazol-5-yl)piperidine-1-carboxylate]
> 75 nM	Cc1nc([C@H]2C[C@@H]2c2nc3ccccc3n2CCF)cc(-n2nc(C)nc2C)n1 [Cpd 102, 2-{(1S,2S)-2-[6-(3,5-dimethyl-1H-1,2,4-triazol-1-yl)-2-methylpyrimidin-4-yl]cyclopropyl}-1-(2-fluoroethyl)-1H-benzimidazole]
1.08 nM	COCCOc1nc([C@@H]2C[C@H]2c2nc3ccccc3n2C)cc(-n2nc(C)nc2C)n1 [Cpd 65, 2-{(1R,2R)-2-[6-(3,5-dimethyl-1H-1,2,4-triazol-1-yl)-2-(2-methoxyethoxy)pyrimidin-4-yl]cyclopropyl}-1-methyl-1H-benzimidazole]
2 nM	Cc1nc(C)n(-c2cc([C@H]3C[C@@H]3c3nc4ccccc4n3C)nc(N3CCNCC3)n2)n1 (relative stereo) [Cpd 126, trans-2-{2-[6-(3,5-dimethyl-1H-1,2,4-triazol-1-yl)-2-piperazin-1-ylpyrimidin-4-yl]cyclopropyl}-1-methyl-1H-benzimidazole]
0.54 nM	CCOc1nc([C@@H]2C[C@H]2c2nc3ccccc3n2C)cc(-n2nc(C)nc2C)n1 [Cpd 63, 2-{(1R,2R)-2-[6-(3,5-dimethyl-1H-1,2,4-triazol-1-yl)-2-ethoxypyrimidin-4-yl]cyclopropyl}-1-methyl-1H-benzimidazole]
0.21 nM	Cc1ccc(C2CC2c2cc(-n3nc(C)nc3Cc3ccccc3)nc(C)n2)nc1 (stereo not drawn) [Cpd 49, 4-(5-benzyl-3-methyl-1H-1,2,4-tiazol-1-yl)-2-methyl-6-(2-(5-methylpyridin-2-yl)cyclopropyl)pyrimidine]
2.9 nM	Cc1nc([C@H]2C[C@@H]2c2nc3ccccc3n2C)cc(-n2nc(C)nc2C2CC2)n1 (stereo in doubt) [Cpd 85, 2-{2-[6-(5-cyclopropyl-3-methyl-1H-1,2,4-triazol-1-yl)-2-methylpyrimidin-4-yl]cyclopropyl}-1-methyl-1H-benzimidazole]
0.01 nM	COc1ccc(Cc2nc(C)nn2-c2cc(/C=C/c3ccc4ncccc4n3)nc(C)n2)cc1OC [Cpd 13, (E)-2-(2-(6-(5-(3,4-dimethoxybenzyl)-3-methyl-1H-1,2,4-triazol-1-yl)-2-methylpyrimidin-4-yl)vinyl)-1,5-naphthyridine]
69.5 nM	Cc1nc([C@H]2C[C@@H]2c2nc3ccccc3s2)cc(-n2nc(C)nc2C)n1 [Cpd 104, 2-{(1S,2S)-2-[6-(3,5-dimethyl-1H-1,2,4-triazol-1-yl)-2-methylpyrimidin-4-yl]cyclopropyl}-1,3-benzothiazole]
1.1 nM	Cc1nc(C)n(-c2cc([C@@H]3C[C@H]3c3nc4ccccc4n3C)nc(N3CC(C)(O)C3)n2)n1 [Cpd 135, 1-(4-(3,5-dimethyl-1H-1,2,4-triazol-1-yl)-6-((1R,2R)-2-(1-methyl-1H-benzo[d]imidazol-2-yl)cyclopropyl)pyrimidin-2-yl)-3-methylazetidin-3-ol]
10.6 nM	Cc1nc([C@H]2C[C@@H]2c2nc3ccccc3n2C)cc(-n2nc(C)nc2CN(C)C)n1 (stereo in doubt) [Cpd 87, N,N-dimethyl-1-(3-methyl-1-{2-methyl-6-[2-(1-methyl-1H-benzimidazol-2-yl)cyclopropyl]pyrimidin-4-yl}-1H-1,2,4-triazol-5-yl)methanamine]

System: not given
Assay: not given
Settings: not given

melting point	SMILES
212 to 214 °C	CNc1nc([C@H]2C[C@@H]2c2nc3ccccc3n2C)cc(-n2nc(C)nc2C)n1 (relative stereo) [Example 3, trans-4-(3,5-dimethyl-1H-1,2,4-triazol-1-yl)-N-methyl-6-(2-(1-methyl-1H-benzo[d]imidazol-2-yl)cyclopropyl)pyrimidin-2-amine]
